Common to all, as to test: inhibition of tumour cell growth, NCI panel, 48 h
The subject of test [1] is HCT-116 colon.
Test [2] concerns MDA-MB-231 breast.
For test [3], the system named is NCI/ADR-RES ovarian.
Test [4] has as its system OVCAR-5 ovarian.
In test [5] the test system is SF-268 CNS.
Test [6] has as its system SK-MEL-28 melanoma.
The test system of test [7] is SK-MEL-5 melanoma.
Test [8] relates to SR leukemia.
Test [9] relates to TK-10 renal.
Test [10] has as its system UACC-62 melanoma.

Drawing on PubChem BioAssay (NCI), this text covers GI50 and TGI for 8 molecules.

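The compound was tested at five concentrations on cells cultured in 96-well plates, with a 48-hour exposure period. GI50 marks 50% less growth. TGI is the concentration that stops growth completely.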 Bounds are passed on as bounds.

Consider `COc1ccc2c(c1)O/C(=C\c1cccc(OCC(=O)Nc3nc4ccccc4s3)c1)C2=O`, for which the GI50 in test [1] was 24.1 µM; in [2], 7.35 µM; in [3], 47 µM; in test [4] it was greater than 84.3 µM; in test [5] it was 4.83 µM; in test [6], greater than 72 µM. Besides, the GI50 in test [7] was greater than 51.5 µM; in [8] it was 0.749 µM; in [9] it was greater than 54.3 µM; in test [10] it was 23.5 µM. In addition, the TGI in test [1] was greater than 100 µM; in test [2], greater than 23.1 µM; in test [3], greater than 100 µM; in test [4] it was greater than 100 µM; in test [5], 11 µM; in test [6] it was greater than 100 µM. Further, the TGI in test [7] is greater than 100 µM; in test [8], 2.42 µM; in [9], greater than 100 µM; in test [10], greater than 100 µM.
Consider `Cc1cc(N(CCCl)CCCl)ccc1C=Nc1cccnc1`, for which the GI50 in [1] was 22.7 µM; in test [2], 67.6 µM; in [3], 12.1 µM; in [4] it was 1.86 µM; in [5], 11.3 µM; in [6] it was greater than 77.8 µM. Moreover, the GI50 was 14.6 µM in test [7], 0.695 µM in test [8], 10.4 µM in test [9] and 1.59 µM in test [10]. The TGI in test [1] was greater than 100 µM; in test [2], greater than 100 µM; in test [3] it was greater than 95.4 µM; in [4] it was 15.9 µM; in test [5], greater than 100 µM; in [6] it was greater than 100 µM. Besides, the TGI was 41.7 µM in test [7], greater than 100 µM in [8], greater than 66 µM in [9] and 16.1 µM in test [10].
Turning to `O=C(NNc1nc2cc(F)ccc2n2c(CN3CCOCC3)ccc12)c1ccccc1`, the GI50 in [1] was 0.139 µM; in test [2], 0.443 µM; in [3], 0.211 µM; in [4], 0.474 µM; in test [5] it was 0.243 µM; in test [6] it was 0.29 µM. In addition, the GI50 in test [7] is 0.438 µM; in test [8], 0.0639 µM; in test [9], 0.276 µM; in [10] it was 0.244 µM. In addition, the TGI in test [1] amounted to 1.38 µM; in [2], 2.45 µM; in [3], 2.37 µM; in test [4], 3.45 µM; in [5] it was 2.69 µM; in test [6], 1.78 µM. Further, the TGI in test [7] amounted to 2.06 µM; in test [9] it was 7.07 µM; in [10], 1.14 µM.
With `COc1ccc(-c2nc(-c3nc4ccc(F)cc4[nH]3)cc3c2[nH]c2ccccc23)cc1`, the GI50 in test [1] was 2.69 µM; in [2], 2.3 µM; in test [3], 2.77 µM; in test [4] it was 4.46 µM; in test [5], 3.24 µM; in test [6], 3.4 µM. The GI50 in test [7] is 1.8 µM; in [8], 3.34 µM; in test [9], 2.2 µM; in test [10], 1.86 µM. Moreover, the TGI in [1] was 8.25 µM; in test [2] it was 8.95 µM; in [3], greater than 100 µM; in test [4], greater than 100 µM; in test [5], greater than 100 µM; in test [6], greater than 100 µM. In addition, the TGI in [7] was 4.61 µM; in test [8], greater than 100 µM; in [9], 6.74 µM; in [10], 4.25 µM.
`Cc1ccc(NS(=O)(=O)c2ccc(-c3cnc(C4CC4)o3)cc2)cc1`: the GI50 is 2.49 µM in [1]; 4.5 µM in [2]; 1.61 µM in test [3]; 9.28 µM in [4]; 6.19 µM in test [5]; 6.22 µM in [6]. Also, the GI50 in [7] is 2.43 µM; in test [8], 0.316 µM; in test [9], 9.96 µM; in test [10], 3.06 µM. Further, the TGI in test [1] was 15.2 µM; in [2] it was 18.8 µM; in [3], 7.79 µM; in test [4], 22.6 µM; in [5] it was 21.3 µM; in test [6], 20.1 µM. In addition, the TGI amounted to 8.29 µM in test [7], 17.7 µM in test [8], 22.1 µM in test [9] and 14.9 µM in [10].
As for `Brc1c[n+](Cc2ccc3ccccc3c2)cn1Cc1ccc2ccccc2c1`, the GI50 is 1.21 µM in test [1]; 1.4 µM in test [2]; greater than 100 µM in test [3]; 2.13 µM in test [4]; 1.47 µM in [5]; 1.55 µM in [6]. Also, the GI50 was 1.6 µM in test [7], 1.17 µM in [8], 1.86 µM in [9] and 1.24 µM in [10]. Besides, the TGI in test [1] is 2.49 µM; in test [2] it was 2.86 µM; in test [3], greater than 100 µM; in test [4], 8.71 µM; in test [5], 3.02 µM; in test [6], 3.09 µM. Besides, the TGI in test [7] was determined as 2.96 µM; in [8], 5.11 µM; in test [9] it was 5.16 µM; in test [10], 2.58 µM.
As to `O=S(=O)(Nc1ccc(-c2nc(-c3cccc(OCCN4CCOCC4)c3)c(-c3ccnc(Br)c3)[nH]2)cc1)c1ccccc1`, the GI50 in test [1] was 3.09 µM; in test [2] it was 3.23 µM; in test [3], 4.18 µM; in [4], 5.99 µM; in [5] it was 4.23 µM; in [6], 2.77 µM. Besides, the GI50 is 2.12 µM in test [7], 2.62 µM in test [8], 4.16 µM in [9] and 2.66 µM in test [10]. In addition, the TGI in [1] is greater than 100 µM; in [2], 63.6 µM; in [3], greater than 100 µM; in test [4] it was greater than 100 µM; in test [5], greater than 100 µM; in test [6] it was 9.79 µM. For the same molecule, the TGI in test [7] is 4.6 µM; in test [8], greater than 100 µM; in test [9], greater than 100 µM; in test [10], 12.1 µM.
On to `CC1OCC2OC(C)OC(C3C4=C(CC(C)(C)CC4=O)OC4=C3C(=O)CC(C)(C)C4)C2O1` (centres undefined), for which the TGI in [1], in test [2], in [3], in test [4], in test [5] and in test [6] was greater than 100 µM throughout. Besides, the TGI in test [7], in test [8], in [9] and in test [10] was greater than 100 µM throughout.
